Reference: patent US10220040B2, “Compounds, compositions and methods useful for cholesterol mobilization” (Cerenis Therapeutics Holding SA, priority 2010, dated 2019)

Experiments:
[1] = molecular target: human P2Y13 receptor (Homo sapiens (Human), UniProt Q9BPV8); assay: Ca++ flux agonist assay on P2Y13 receptor transfected 1321N1 cells; assay type: cell-based; settings: comma is decimal sign
Method: Compounds were assayed for their agonist activity on P2Y13 GPCR transfected cells using a Ca++ flux assay (associated to fluorescent dye detection) with the Reference Compound as positive reference. Two cell lines, 1321N1-P2Y13 stably expressing human P2Y13 receptor, and 1321N1 parental cell line as control, were used in this assay. 1321N1 Parental and 1321N1 P2Y13 were seeded into T25 flasks at 3 million cells per flask, respectively. Cells were incubated at 37 degrees Celsius in 5% CO2 overnight. The day after, cells were transfected with Gqi5 protein using Fugene transfection reagent (Roche's Fugene Reagent).
After 24 hours of transfection, cells were collected from flasks and seeded in 384-well plates at 8000 cells per well. The assays were carried out 48 hours after Gqi5 transfection.
Methods: The Ca++ flux assay was conducted according to the manufacturer's protocol (Molecular Devices FLIPR Calcium 4 Assay kit (R8142). Briefly, cell culture media were aspirated from the wells and replaced with 25 μL of Hank's buffer or PBS buffer. 25 μL of Ca++ dye was added into each assay well. The plate was incubated for 1 hour at 37° C. in 5% CO2. After the incubation, the plate was transferred to FlexStation III (FlexStation III (Molecular Devices)). The compounds were automatically injected into each well.

[2] = test system: HepG2 cells; assay: In vitro HDL internalization in human hepatocytes (HepG2) cells; assay type: cell-based; settings: compound 1 μM; 3H-labeled HDL 75 μg/ml, 10 min at 37° C.
Method: FIG. 3: Single-dose effect of the selected molecules on HDL internalization by HepG2 cells. Cells were incubated for 10 min at 37° C. with 75 μg/ml ^3H cholesterol Cholesteryl Oleate [Cholesteryl-1,2-^3H(N)] HDL, Reference Compound (100 nM) and illustrative compounds of the invention (1 μM). Data are expressed as the percentage of internalized radioactivity with respect to the control value (set as […]). *p<0.005, **p<0.0001.
The effect of illustrative compounds of the invention on HDL internalization was measured by an in vitro assay on HepG2 cells (FIG. 3). ^3H cholesterol Cholesteryl Oleate [Cholesteryl-1,2-^3H(N)] labeled HDL] (available from PerkinElmer http://www.perkinelmer.com/Catalog/Product/ID/NET746L001MC) was loaded on HepG2 cells in presence of illustrative compounds of the invention (final concentration 1 μM). […] It was determined that Compounds XIa, IIc, IIa and Ih (R-isomer) have a strong impact on HDL uptake by HepG2 cells; Compounds IIb, VIIa and VIIIa have a modest impact on HDL uptake by HepG2 cells.
^3H cholesterol Cholesteryl Oleate [Cholesteryl-1,2-^3H(N)] (Perkin Elmer) solution (250 μL) was dried and resuspended in acetone (250 μL). The solution was mixed with Lipoprotein delipidated serum (20 mL at 40 mg/mL) and DTNB (0.4 μM final concentration). HDL (7 mg) was added and incubated overnight at 4° C. on gentle rotation. The HDL was purified on KBr gradient as previously described.
Hepatocytes were plated at 300,000 cells/well in 6×-well plates. Two days later, the cells were washed once with DMEM and incubated for 1 hour in DMEM at 37° C. 75 μg of radio-labeled HDL (6500 dpm/μg) were added to the medium and incubated for 10 minutes at 37° C. The cells were washed once with DMEM (2 mL) and incubated for 1.5 hours in DMEM at 4° C., whereupon dissociation occurred. Then the cells were washed once more with cold DMEM (2 mL) and the incorporated cholesterol ether was retrieved from HepG2 cells by the addition of hexane:isopropanol (3:2) solution (1 mL).

[3] = test system: C57Bl6 mice; assay: Dose response on bile physiology after single oral gavage in mice; assay type: in vivo; settings: oral gavage 0.003, 0.03 and 0.3 mg/kg, bile analyzed 6 hours later
Method: FIG. 16A-J: Increase of bile secretion following activation of P2Y13r pathway in mice. C57Bl/6J mice (n=10) were fasted for 2 h and then intravenously injected with Cangrelor® or Compound IIa (10 nmoles/kg). Four hours later the gallbladders were removed and analyzed for: Bile acids content (FIG. 16A); Bile cholesterol content (FIG. 16B). C57Bl/6J mice (n=10) were fasted for 2 h followed by single oral dose of P2Y13r agonist Compound IIa at 3, 30 or 300 μg/kg. Six hours later bile acids contents (FIG. 16C); bile cholesterol content (FIG. 16D), and bile acid content of liver (FIG. 16E) were evaluated using HPLC and enzymatic kits for gallbladers. Plasma samples were collected at time 0 and after 6 h of treatment, then analyzed for: total cholesterol (▴), unesterified cholesterol (●), esterified cholesterol (▪) and HDL cholesterol (▾) determined using either enzymatic kits or Lipoprint® for HDL cholesterol (FIG. 16F). C57Bl/6J mice (n=5) were intravenously injected with [^3H]-cholesterol-labelled mouse HDL (FIG. 16G), [^3H]-cholesteryl oleate-labelled mouse HDL (FIG. 16H) or [^3H]-cholesterol-labelled mouse LDL (FIG. 16I), and with Cangrelor® or Compound IIa (10 nmoles/kg). Radioactivity present in the liver was determined 2 hours later for the HDL or 5 hours later for the LDL. Cholesterol content of feces from treated animals (100 μg/kg) was determined by Charge aerosol detection (FIG. 16J). *p<0.05, **p<0.01.
The dose response after oral gavage was determined for illustrative compounds of the invention. The chosen doses were 0.003, 0.03 and 0.3 mg/kg. The selected compounds of the invention were administrated by oral gavage and 6 hours later the mice are sacrificed and the bile content was analyzed (FIGS. 6-11).
Bile acids were diluted in PBS (1:5000) and the concentration was measured according to the manufacturer protocol with slight modifications. Concentrations of bile acids in the standard curve were varied from […] and the enzymatic reaction was performed for 20 minutes. 4 μl of 1:5000 bile dilution was used for concentration determination.
Bile phospholipids were measured according to the manufacturer protocol. Briefly, the standards were varied from 0 to 20 μg/ml and 4 μl of bile was measured in the assay. The reaction was performed for 5 minutes at 37° C.
Bile phospholipids were measured according to the manufacturer protocol. Briefly, the standards were varied from 0 to 60 μg/ml and 10 μl of bile (dilution 1:10) was measured in the assay. The reaction was performed for 5 minutes at 37° C.

[4] = test system: HepG2 cells; settings: previously reported (Jacquet et al. 2005); positive control; cited from earlier work
[5] = Table 4, measured from data of Figure 2
[6] = Table 3, measured from data of Figure 1

Sequence of human P2Y13 receptor (Q9BPV8 whole entry): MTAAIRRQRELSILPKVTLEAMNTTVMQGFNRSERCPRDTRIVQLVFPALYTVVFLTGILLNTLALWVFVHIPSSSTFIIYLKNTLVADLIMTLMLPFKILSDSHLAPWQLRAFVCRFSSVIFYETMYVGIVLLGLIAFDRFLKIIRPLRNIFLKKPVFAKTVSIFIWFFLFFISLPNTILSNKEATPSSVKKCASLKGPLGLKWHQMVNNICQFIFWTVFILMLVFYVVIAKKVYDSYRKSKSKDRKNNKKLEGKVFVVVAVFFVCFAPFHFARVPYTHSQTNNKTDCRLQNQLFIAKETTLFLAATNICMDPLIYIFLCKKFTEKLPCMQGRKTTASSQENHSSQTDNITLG

| Molecule | EC50 [1, 5] | EC50 [1, 6] | impact on HDL uptake by HepG2 cells [2] | dose at which an effect on bile acids, bile cholesterol and bile phospholipids was shown [3] | HDL uptake in HepG2 cells in vitro [4] |
| --- | --- | --- | --- | --- | --- |
| 6-[1-(2-methylaminopyrimidin-5-ylmethyl)-piperidin-4-yl]-2-piperidin-1-yl-pyrimidin-4-ol [Compound IIc] | 6.63 µM | – | strong impact | 3 µg/kg | – |
| CCOC(=O)C(C)(C)CCCC[C@H](c1ccccc1Cl)N1CCc2sccc2C1 [Compound Ih (R-isomer)] | – | 42.4 µM | strong impact | – | – |
| CCOc1cc(C2CC(=O)Nc3c2cnn3-c2ccccc2CC)ccc1O (stereo not shown) [Compound VIIIa, 4-(3-Ethoxy-4-hydroxy-phenyl)-1-(2-ethyl-phenyl)-1,4,5,7-tetrahydro-pyrazolo[3,4-b]pyridin-6-one] | – | – | – | 3 µg/kg | – |
| CCOC(=O)C(C)(C)CCCC[C@@H](c1ccccc1Cl)N1CCc2sccc2C1 [Compound Ih (S-isomer)] | – | 33.7 µM | – | – | – |
| CC(C)(CCCCCC(c1ccccc1Cl)N1CCC(O)/C(=C/C(=O)O)C1)C(=O)O (stereo not shown) [Compound Va] | – | 55.2 µM | – | – | – |
| COc1ccc(CN2CCC(c3cc(O)nc(N4CCCCC4)n3)CC2)cc1O [Compound IIb, 6-[1-(3-Hydroxy-4-methoxybenzyl)-piperidin-4-yl]-2-piperidin-1-yl-pyrimidin-4-ol] | 0.299 µM | – | modest impact | 300 µg/kg | – |

Now from value to molecule, other results behind:

| EC50 [1, 5] | EC50 [1, 6] | Molecule | impact on HDL uptake by HepG2 cells [2] | dose at which an effect on bile acids, bile cholesterol and bile phospholipids was shown [3] | HDL uptake in HepG2 cells in vitro [4] |
| --- | --- | --- | --- | --- | --- |
| 40.3 µM | – | O=C(C1OCCc2ccccc21)N1CCC2(CC1)Nc1ccccc1-n1cccc12 (stereo not shown) [Compound VIIa, isochroman-1-yl(5′H-spiro[piperidine-4,4′-pyrrolo[1,2-a]quinoxaline]-1-yl)methanone] | modest impact | 300 µg/kg | – |
| 0.00632 µM | – | CSCCNc1nc(SCCC(F)(F)F)nc2c1ncn2[C@@H]1O[C@H](COP(=O)(O)OP(=O)(O)C(Cl)(Cl)P(=O)(O)O)[C@@H](O)[C@H]1O [Reference Compound, Dichloro-(((((2R,3S,4R,5R)-3,4-dihydroxy-5-(6-(2-(methylthio)ethylamino)-2-(3,3,3-trifluoropropylthio)-9H-purin-9-yl)tetrahydrofuran-2-yl)methoxy)(hydroxy)phosphoryloxy)(hydroxy)phosphoryl)-methylphosphonic acid, reference compound] | – | – | increase the HDL uptake |
| 0.0489 µM | – | COCCNCC(=O)Nc1ccc2c(c1)OCCO2 [Compound XIa, N-(2,3-Dihydrobenzo[1,4]dioxin-6-yl)-2-(2-methoxy-ethylamino)-acetamide] | strong impact | 3 µg/kg | – |
